Experimental data as given in publication PMC7413254 (Nature Communications, 2020).
Read-outs that look alike come from different tables or passages of the source.

Key:
[1] = molecular target: T1, PfCRT^Ecu1110 (Plasmodium falciparum, UniProt Q9N623, A220S/I356L/K76T/N326D); test: [3H]CQ uptake into Xenopus oocytes, cis-inhibition by unlabelled solute; type: cell-based; conditions: read-out: [3H]CQ transport (% PfCRTEcu1110 control), cis-inhibition, PfCRTEcu1110; SEM
Outline: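 ND96, pH 5.5, 1.5 h, 27.5 °C; uptake direction acidic outside → oocyte cytosol, mimicking efflux from digestive vacuole. Ice-cold wash stop, 10% SDS lysis, scintillation counting. Ten oocytes/treatment, ≥4 independent experiments.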

[2] = test system: non-expressing oocytes; type: cell-based, Xenopus laevis; conditions: total [3H]CQ transport; for Uptake of [3H]CQ (% non-expressing oocyte control), trans-stimulation: non-expressing oocytes, normalised to the oocyte type control; for Uptake of [3H]CQ (% PfCRTDd2 control), trans-stimulation, non-expressing oocytes: mean ± SEM, SEM
Outline: (§1)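 Oocytes (ten per treatment, ≥4 independent frogs/days) were preloaded by injecting VF-6 in 25 nL ND96 at pH 5.0, 5.5, 6.0 or 7.0, or Na^+-free choline buffer, then uptake run 1.5 h, 27.5 °C, ND96 pH 5.5 by default. Internal concentrations assumed ~400 nL oocyte volume.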

[3] = molecular target: PfCRT^3D7 (Plasmodium falciparum, UniProt Q8IBZ9); test: cell-based; type: cell-based
PfCRT^3D7, sequence (Q8IBZ9 59-398): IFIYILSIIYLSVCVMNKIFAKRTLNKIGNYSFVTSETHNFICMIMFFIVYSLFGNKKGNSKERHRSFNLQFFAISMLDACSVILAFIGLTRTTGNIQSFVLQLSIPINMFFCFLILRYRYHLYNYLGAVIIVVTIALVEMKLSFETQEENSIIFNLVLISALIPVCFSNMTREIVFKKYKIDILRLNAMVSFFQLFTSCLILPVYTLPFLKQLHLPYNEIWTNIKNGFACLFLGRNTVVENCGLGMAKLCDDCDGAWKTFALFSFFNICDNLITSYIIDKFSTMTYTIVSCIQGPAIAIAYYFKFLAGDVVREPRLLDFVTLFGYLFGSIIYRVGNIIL
Outline: as §1

[4] = molecular target: PfCRT^Dd2 (Plasmodium falciparum, UniProt Q9N623, A220S/I356T/K76T/M74I/N326S/N75E/Q271E/R371I); test: cell-based; type: cell-based; conditions: […]; for activity at 45000 µM: [test solute]i = 45 mM (30 mM for some solutes due to solubility)
PfCRT^Dd2, sequence (Q9N623 whole entry A220S/I356T/K76T/M74I/N326S/N75E/Q271E/R371I): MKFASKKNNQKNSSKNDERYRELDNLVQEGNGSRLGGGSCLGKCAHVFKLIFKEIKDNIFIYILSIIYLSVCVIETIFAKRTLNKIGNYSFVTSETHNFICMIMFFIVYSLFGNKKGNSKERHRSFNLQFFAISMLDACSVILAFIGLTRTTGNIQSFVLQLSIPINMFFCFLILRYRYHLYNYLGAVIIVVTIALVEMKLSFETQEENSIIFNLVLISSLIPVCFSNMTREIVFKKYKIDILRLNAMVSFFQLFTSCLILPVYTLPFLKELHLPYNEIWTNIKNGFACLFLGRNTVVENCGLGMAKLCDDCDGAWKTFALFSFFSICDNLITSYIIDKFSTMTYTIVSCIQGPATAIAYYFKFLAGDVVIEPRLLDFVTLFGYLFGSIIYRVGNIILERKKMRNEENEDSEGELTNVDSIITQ
Outline: as §1

[5] = molecular target: T1, PfCRT^Ecu1110; test: cell-based; type: cell-based; conditions: […]
Outline: as §1

[6] = molecular target: T2, PfNT1 (Plasmodium falciparum, UniProt Q8IDM6); test: cell-based; type: cell-based; conditions: for activity at 5000 µM: total [3H]CQ transport
T2 construct: expressed in transfected cells; host or cells: Xenopus laevis oocytes (stage V-VI), cRNA-injected
T2 sequence (Q8IDM6 whole entry): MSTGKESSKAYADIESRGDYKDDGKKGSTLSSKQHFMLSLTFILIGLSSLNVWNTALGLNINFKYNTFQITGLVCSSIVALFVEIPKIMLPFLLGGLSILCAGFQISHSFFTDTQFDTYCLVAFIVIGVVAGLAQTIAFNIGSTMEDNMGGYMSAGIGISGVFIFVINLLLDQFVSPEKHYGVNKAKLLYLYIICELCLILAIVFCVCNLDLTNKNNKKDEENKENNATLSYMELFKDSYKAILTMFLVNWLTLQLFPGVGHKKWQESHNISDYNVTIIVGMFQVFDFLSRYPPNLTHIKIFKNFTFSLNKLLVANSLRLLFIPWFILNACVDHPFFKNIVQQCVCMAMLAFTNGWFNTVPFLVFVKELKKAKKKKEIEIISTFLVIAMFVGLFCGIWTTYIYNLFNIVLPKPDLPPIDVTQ
Outline: as §1

[7] = test system: PfCRT; test: Influx of VF-6 via PfCRT into the oocyte, solutes tested as potential co-substrates; type: cell-based, Plasmodium falciparum; set-up: key: X: Compounds that have been tested as potential co-substrates but are not required for influx of VF-6 via PfCRT into the oocyte; conditions: X marks the solute
[8] = test system: PfCRT; test: Potential co-substrates tested for influx of VF-6 via PfCRT into the oocyte; type: cell-based, Plasmodium falciparum; set-up: key: X: Compounds that have been tested as potential co-substrates but are not required for influx of VF-6 via PfCRT into the oocyte

T1 sequence (Q9N623 whole entry A220S/I356L/K76T/N326D): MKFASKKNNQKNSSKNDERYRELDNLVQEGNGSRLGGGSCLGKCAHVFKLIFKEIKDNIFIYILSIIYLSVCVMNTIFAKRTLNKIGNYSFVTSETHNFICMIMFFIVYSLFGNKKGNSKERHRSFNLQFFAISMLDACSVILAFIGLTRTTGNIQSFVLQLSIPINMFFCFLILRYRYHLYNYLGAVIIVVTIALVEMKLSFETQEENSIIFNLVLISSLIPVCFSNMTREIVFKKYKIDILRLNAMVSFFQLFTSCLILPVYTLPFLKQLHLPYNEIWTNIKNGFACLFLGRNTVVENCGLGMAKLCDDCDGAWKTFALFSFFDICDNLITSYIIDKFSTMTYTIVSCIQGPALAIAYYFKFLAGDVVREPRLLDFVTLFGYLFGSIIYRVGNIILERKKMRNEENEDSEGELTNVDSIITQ

SMILES: N=C(N)NCCC[C@H](N)C(=O)O [L-arginine]
- inhibition at 500 µM [1]: 30 ± 0.6%
- inhibition at 1000 µM [1]: 29 ± 0.4%
- inhibition at 2000 µM [1]: 30 ± 0.5%
- Uptake of [3H]CQ (% non-expressing oocyte control), trans-stimulation ([2]; [test solute]i = 5 mM): 97 ± 4.1 % non-expressing oocyte control
- Uptake of [3H]CQ (% non-expressing oocyte control), trans-stimulation ([2]; [test solute]i = 45 mM (30 mM for some solutes due to solubility)): 98 ± 3.9 % non-expressing oocyte control
- Uptake of [3H]CQ (% PfCRTDd2 control), trans-stimulation, non-expressing oocytes ([2]; [test solute]i = 5 mM (intracellular)): 2.7 ± 0.07 % PfCRTDd2 control
- Uptake of [3H]CQ (% PfCRTDd2 control), trans-stimulation, non-expressing oocytes ([2]; [test solute]i = 45 mM (intracellular; 30 mM for some solutes due to solubility)): 3.0 ± 0.01 % PfCRTDd2 control
- activity at 5000 µM ([3]; PfCRT3D7 oocytes, [test solute]i = 5 mM, total [3H]CQ transport, normalised to the oocyte type control, read-out: Uptake of [3H]CQ (% PfCRT3D7 control), trans-stimulation): 97 ± 2.2%
- [3H]CQ transport (% PfCRT3D7 control), trans-stimulation, PfCRT3D7 ([3]; SEM): 0.3 ± 0.02 % PfCRT3D7 control
- activity at 5000 µM ([3]; [test solute]i = 5 mM (intracellular), PfCRT3D7 oocytes, normalised to oocyte type control, read-out: PfCRT-mediated [3H]CQ transport, trans-stimulation (% PfCRT3D7 control)): 96 ± 3.7%
- activity at 45000 µM ([3]; SEM, read-out: Uptake of [3H]CQ (% PfCRTDd2 control), trans-stimulation, PfCRT3D7): 3.3 ± 0.02%
- activity at 45000 µM ([3]; read-out: PfCRT-mediated [3H]CQ transport, trans-stimulation (% PfCRT3D7 control)): 96 ± 3.1%
- activity at 45000 µM ([3]; read-out: Uptake of [3H]CQ (% PfCRT3D7 control), trans-stimulation): 98 ± 4.4%
- activity at 5000 µM ([3]; total [3H]CQ transport, [test solute]i = 5 mM (intracellular), mean ± SEM, SEM, read-out: Uptake of [3H]CQ (% PfCRTDd2 control), trans-stimulation, PfCRT3D7): 3.3 ± 0.06%
- activity at 5000 µM ([4]; pH 5.5, read-out: PfCRT-mediated [3H]CQ transport, trans-stimulation (% PfCRTDd2 control), [test solute]i = 5 mM (intracellular), PfCRTDd2 oocytes, normalised to oocyte type control): 98 ± 2.1%
- activity at 5000 µM ([4]; pH 5.5, read-out: Uptake of [3H]CQ (% PfCRTDd2 control), trans-stimulation, PfCRTDd2, total [3H]CQ transport, [test solute]i = 5 mM (intracellular), mean ± SEM, SEM): 100 ± 3.5%
- activity at 5000 µM ([4]; pH 5.5, read-out: Uptake of [3H]CQ (% PfCRTDd2 control), trans-stimulation, PfCRTDd2 oocytes, [test solute]i = 5 mM, total [3H]CQ transport, normalised to the oocyte type control): 100 ± 3.5%
- activity at 45000 µM ([4]; pH 5.5, read-out: Uptake of [3H]CQ (% PfCRTDd2 control), trans-stimulation, PfCRTDd2 oocytes, total [3H]CQ transport, normalised to the oocyte type control): 97 ± 4.2%
- activity at 5000 µM ([4]; pH 5.5, read-out: [3H]CQ transport (% PfCRTDd2 control), trans-stimulation, PfCRTDd2, trans-stimulation, [test solute]i = 5 mM (injected), PfCRT-mediated component (background subtracted), mean ± SEM, SEM): 98 ± 2.1%
- activity at 45000 µM ([4]; pH 5.5, read-out: [3H]CQ transport (% PfCRTDd2 control), trans-stimulation, PfCRTDd2, trans-stimulation, PfCRT-mediated component (background subtracted), mean ± SEM, SEM): 95 ± 2.5%
- activity at 5000 µM ([5]; pH 5.5, read-out: PfCRT-mediated [3H]CQ transport, trans-stimulation (% PfCRTEcu1110 control), [test solute]i = 5 mM (intracellular), PfCRTEcu1110 oocytes, normalised to oocyte type control): 98 ± 4.1%
- activity at 5000 µM ([5]; pH 5.5, read-out: Uptake of [3H]CQ (% PfCRTEcu1110 control), trans-stimulation, PfCRTEcu1110 oocytes, [test solute]i = 5 mM, total [3H]CQ transport, normalised to the oocyte type control): 100 ± 3.7%
- activity at 45000 µM ([5]; pH 5.5, read-out: Uptake of [3H]CQ (% PfCRTEcu1110 control), trans-stimulation, PfCRTEcu1110 oocytes, [test solute]i = 45 mM (30 mM for some solutes due to solubility), total [3H]CQ transport, normalised to the oocyte type control): 99 ± 2.5%
- activity at 5000 µM ([5]; read-out: Uptake of [3H]CQ (% PfCRTDd2 control), trans-stimulation, PfCRTEcu1110, total [3H]CQ transport, [test solute]i = 5 mM (intracellular), mean ± SEM, SEM): 36 ± 2.1%
- activity at 45000 µM ([5]; read-out: Uptake of [3H]CQ (% PfCRTDd2 control), trans-stimulation, PfCRTEcu1110, total [3H]CQ transport, [test solute]i = 45 mM (intracellular; 30 mM for some solutes due to solubility), mean ± SEM, SEM): 35 ± 2.2%
- activity at 5000 µM ([6]; PfNT1 oocytes, [test solute]i = 5 mM, normalised to the oocyte type control, read-out: Uptake of [3H]CQ (% PfNT1 control), trans-stimulation): 98 ± 3.8%
- activity at 45000 µM ([6]; SEM, read-out: Uptake of [3H]CQ (% PfCRTDd2 control), trans-stimulation, PfNT1): 3.1 ± 0.07%
- activity at 45000 µM ([6]; read-out: Uptake of [3H]CQ (% PfNT1 control), trans-stimulation): 98 ± 3.2%
- activity at 5000 µM ([6]; [test solute]i = 5 mM (intracellular), mean ± SEM, SEM, read-out: Uptake of [3H]CQ (% PfCRTDd2 control), trans-stimulation, PfNT1): 3.3 ± 0.03%
- Compounds that have been tested as potential co-substrates but are not required for influx of VF-6 via PfCRT into the oocyte [7]: X
- Tested as potential co-substrate but not required for influx of VF-6 via PfCRT into the oocyte [8]: X
